Source: a melting point compilation (Tetko et al.; mined from patent text by program, amines drawn as free bases though some values may be those of a salt)

| melting point [°C] | SMILES |
| --- | --- |
| 100 to 103 | O=C(CCCCCCC(c1ccccc1)(c1ccccc1)c1ccccc1)NO |
| 190 to 192 | Cc1ccc(-c2c(-c3ccc(S(C)(=O)=O)cc3)cnn(-c3ccc(F)c(F)c3)c2=O)cc1 |
| 214 to 216 | Nc1cc(-c2ccccc2)cc2nc(-c3ccccc3)nn12 |
| 20 to 22 | CCCCCCCC=CCCCCCCCCC(=O)OCC(O)COC(=O)CCCCCCCC=CCCCCCCCC (stereo not given) |
| 100 to 107 | COC(=O)c1c(C(=O)NC(C)(C(N)=O)C(C)C)cccc1[N+](=O)[O-] (stereo not given) |
| 68 | CC(C)(C)OC(=O)N(Cc1ccccc1)C1(CO)CC1 |
| 197 to 198 | O=C1N[C@H](Cc2ccc(F)cc2)[C@H](c2ccc(F)cc2)O1 (racemic) |
| 218 to 220 | CCc1cc(O)cc2cc(-c3ccc(O)cc3)oc12 |
| 106 to 108 | Cc1ccc(Cl)c(-c2nn(C(C)(C)C(=O)N(C)C)cc2C)c1 |
| 103 to 104 | Cc1ccc(S(=O)(=O)N(C)c2ccc([N+](=O)[O-])cc2C)cc1 |
| 180 | Cc1cccc(C)c1COc1cc(C(=O)N(C)C)cc2c1nc(C)n2C |
| 201 to 203 | Cc1ccc(C2c3c(C)c(N4Cc5cc(Cl)c(Cl)cc5C4)c(C)c(C)c3OC2(C)C)cc1 (stereo not given) |
| 120 to 121 | COc1cc(C=C(C)[N+](=O)[O-])cc2c1OC(C)(C)C2 |
| 279 to 283 | Cc1[nH]c(=O)ccc1-c1ccc(O)c(N)c1 |
| 160 to 161 | CCOP(=O)(Cc1ccc(NC(=O)C(Cc2ccccc2)C(=O)O)cc1)OCC (stereo not given) |
| 125 | CCc1nc(-c2ccc(OCCC3CCN(c4ccc(C)nn4)CC3)cc2)no1 |
| 73 to 74 | Nc1ccc(CCn2cccn2)cc1 |
| 232 to 233 | Cn1c(=O)c(-c2ccc(Cl)cc2Cl)cc2c3cc(-c4ncco4)ccc3n(C)c21 |
| 120 to 122 | COc1cc(OC)c(-c2cc3ccccc3n2C)cc1C=CC(=O)c1ccc(S(=O)(=O)N(C)C)cc1 |
| 127 to 130 | CCOC(=O)Nc1cc(C(=O)NC(C)C)c(Cl)cc1F |

| melting point [°C] | SMILES |
| --- | --- |
| 206 | N#Cc1ccc(CC(NC(=O)C(Cc2ccccc2)S(=O)(=O)Nc2ccc3ccccc3c2)C(=O)N2CCCC2)cc1 (stereo not given) |
| 206 to 207 | CC(C)(C)CC(=O)c1c(-c2ccc3c(Br)c(OCC(=O)O)ccc3c2)sc2ccccc12 |
| 210 | Cc1cc2ccccc2cc1C1CC(=O)C=C(O)C1 (stereo not given) |
| 142 to 143 | O=S(=O)(Cc1ccccc1)c1ncc(Br)cn1 |
| 138 to 140 | CCc1c(F)c(F)c(-n2ncc(C#N)c2NCC(C)C(=O)O)c(F)c1F (stereo not given) |
| > 200 | O=C(O)Cc1c(C(=O)O)c2cc(Oc3ccc(OC(F)(F)F)cc3)ccc2n1-c1ccc(N2CCCCC2)cc1 |
| 150 to 152 | Cn1cc(-c2ccccc2)c(=O)c(-c2cc(C(F)(F)F)ccc2Cl)c1 |
| 129 to 132 | Oc1ccc2cc(COCC3CC3)ccc2c1 |
| 365 | O=c1[nH]c(=O)c2ccncc2[nH]1 |
| 148 to 149 | COc1ccc2nc(-c3ccc(Cl)cc3)cn2c1 |
| 104 to 105 | CC(=O)Nc1ccc(CC2CCN(CCS(=O)c3ccc4[nH]c(=O)oc4c3)CC2)cc1 (stereo not given) |
| 100 to 101 | COP(=O)(OC)C(CCc1cc(C)nc2c(C#N)c(C)nn12)P(=O)(OC)OC |
| 69 to 70 | COC(=O)c1cnn(C)c1Cl |
| 46 to 48 | COc1ccc(C(=O)[C@H](C)NC(=O)OCc2ccccc2)cc1 |
| 101 to 107 | CN(c1ccncc1[N+](=O)[O-])n1cccc1C=O |
| 177 to 179 | Cn1c(C(F)(F)F)cc(=O)n(-c2cc(Oc3ncccc3[N+](=O)[O-])c(Cl)cc2F)c1=O |
| 140 to 141 | Cn1nc(Nc2cc(Cl)n[nH]c2=O)cc1CN1CCC1 |
| 166 | Cc1ccc(-c2occc2C(=O)O)cc1 |
| 183 to 185 | CCC(CC)Nc1cc(C(=O)OC)ccc1N1C(=O)CCC1(CO)CO |
| 172 | COCCNc1nccc(-c2ccnc(Nc3cccc(Cl)c3)n2)c1Cl |

| melting point [°C] | SMILES |
| --- | --- |
| 101 to 103 | CS(=O)(=O)c1ccc(-c2cnn(-c3ccc(F)c(Cl)c3)c(=O)c2Cc2cccc(F)c2)cc1 |
| 164 to 165 | O=C(OCc1ccccc1)c1ccc(OC(=O)c2ccc(O)c(C34CC5CC(CC(C5)C3)C4)c2)cc1 |
| 110 to 111 | Cc1nc2cnc3cccnc3c2n1CC(C)C |
| 72 to 74 | CCOC(=O)NC1CCCCn2c1nc(-c1ccncn1)c(Br)c2=O (racemic) |
| 100 to 102 | CC(C#N)=C1CCN(c2ccc(N3C[C@H](CO)OC3=O)cc2F)CC1 |
| 135 to 136 | CCOc1nn(Cc2ccc(OCc3coc(-c4ccccc4)n3)cc2)cc1CCC(=O)O |
| 63 | CCCC(Oc1ccccc1Br)C(=O)O (stereo not given) |
| 78 to 82 | O=C(O)CC(Cc1ccccc1)NC(=O)C1Cc2ccccc2N1S(=O)(=O)c1ccc(-c2cccc(C(F)(F)F)c2)cc1 (stereo not given) |
| 108 to 110 | CCN(CC)C(=O)c1cc2ccccc2[nH]1 |
| 103 to 104 | CCCN(CCC)[C@@H]1Cc2c(-c3ncco3)ccc3c2[C@H](CN3)C1 |
| 92 to 93 | CCCCOc1cc(CCC(=O)O)ccc1OCCCc1cn(-c2ccc(C(F)(F)F)cn2)nc1OCC |
| 48 to 48.5 | COC(=O)C1=C(O)CCc2ccc(OC)cc21 |
| 276 to 277 | O=c1nc(-c2c[nH]c3ccccc23)sc2ccccc12 |
| 154 to 155 | CC(=NO)c1ccncc1 |
| 178 to 179 | Cc1ccccc1COCC1OC(n2cc(C(F)(F)F)c(=O)[nH]c2=O)CC1O (stereo not given) |
| 125 | COC(=O)[C@@H]1C[C@H](C(=O)OC(C)(C)C)N(C(=O)CNC(=O)Nc2ccc(Cl)cc2)[C@@H]1c1ccccc1 (racemic) |
| 201 to 205 | O=C(CNc1ccc2[nH]c(=O)[nH]c2c1)N1CCC(Oc2ccc(Cl)cc2)CC1 |
| 164 | CC(C)=CC(=O)N[C@H]1CC[C@H](CCN2CCN(c3nccc4c3CCO4)CC2)CC1 |
| 226 to 227 | COCCc1nc2c(N)nc3cc(-c4ccccc4)ccc3c2n1CC(C)(C)O |
| 158 to 160 | CC(C)(C)c1ccc(C(CO)NC(=O)c2c(F)c(F)cc(F)c2F)cc1 (stereo not given) |

The remaining lines, values behind:

| SMILES | melting point [°C] |
| --- | --- |
| CC(C)(C)c1nc2cc(N3CCNCC3)c([N+](=O)[O-])cc2s1 | 144 to 146 |
| CC(C)n1nc(-c2nc(C#N)c(C#N)nc2-c2ccccc2Br)ccc1=O | 160 to 161 |
| CC(=O)c1ccc(N2CCN(c3c(C)c(C)c4c(c3C)CC(C)(C)O4)CC2)cc1 | 192 to 196 |
| CN1CC(CCCl)Cc2ncccc2C1=S (stereo not given) | 110 to 120 |
| CC(C)(C)[Si](C)(C)OC1CCN(S(=O)(=O)c2ccc(N3CCCCC3)cc2)C1=O (stereo not given) | 111 to 112 |
| C[C@@H]1N=C(c2ccccc2Cl)c2cc(N)ccc2N(C)C1=O | 221 |
| O=C(C(=O)N1CCCCC1)C(Cl)Cl | < 50 |
| O=C(O)c1cc(NCc2c(F)c(F)c(C(F)(F)F)c(F)c2F)ccc1Br | 70 |
| CCCCCCCCCCCCCCCCSCC(CN)Oc1ccon1 (stereo not given) | 73 to 74 |
| CCCCCCCCNC(=O)CCBr | 48 to 55 |
| N#Cc1ccc(-c2ccc(-c3ccc(C#N)o3)o2)cc1 | 194 to 195 |
| N#Cc1nn(-c2c(Cl)cc(C(F)(F)F)cc2Cl)c(SCc2ccccc2)c1S(=O)(=O)C(F)(F)F | 117 to 119 |
| O=C(Cl)c1ccc2ccccc2c1O | 87 to 88 |
| CC(=O)c1cc(-c2ccc(C)cc2)c2c(c1)C(C)(C)CCC2(C)C | 102 |
| NS(=O)(=O)c1ccc(-c2ccccc2-c2ccc(F)c(Cl)c2)cc1 | 192 to 193 |
| CS(=O)c1c(C2(C)NCCS2)nn(-c2c(Cl)cc(C(F)(F)F)cc2Cl)c1N (stereo not given) | 85 |
| O=C(Cc1ccccc1)c1ccc(C(F)(F)F)cc1 | 127 to 128 |
| CCCCCCCCCCC(=O)OCCCCCC(=O)CC(=O)c1ccccc1 | 37 to 38 |
| CNC(=O)N(O)C(C)C#Cc1ccc(C)cc1 (stereo not given) | 137 to 138 |
| Nc1cccc(-c2ccc(CCN3CCN(C(=O)COc4ccccc4)CC3)cc2)n1 | 127 to 130 |

| SMILES | melting point [°C] |
| --- | --- |
| CC(C(=O)NCCN(C)C)n1c(-c2ccc(Cl)cc2)nc2cccnc21 (stereo not given) | 130 to 133 |
| Cc1noc(NS(=O)(=O)c2sc3ccc(Cl)cc3c2C)c1Br | 153 to 155 |
| CCCCCS(=O)(=O)NC(=O)C=Cc1ccc(OCCCC#N)cc1Oc1ncc(C(F)(F)F)cc1Cl | 165 to 166 |
| OCc1cc(I)cc(I)c1 | 136 to 140 |
| COC(=O)c1ccc(CC(C)NCC(O)c2ccc(O)c(CO)c2)c(F)c1 (stereo not given) | 97 to 100 |
| Cc1nc(-c2cccc(-n3cnc4cc(-c5ccoc5)ccc43)c2)cs1 | 136 to 138 |
| O=S1(=O)N=C(O)C(c2ccccc2)=N1 | 202 to 204 |
| CCCCCCCCCCCCCCCCCCNC(=O)O[C@H]1CCCO[C@H]1CO (relative stereo) | 85 to 86 |
| CCCNCc1cnc(-c2ncn3c2[C@@H]2CCN2C(=O)c2sccc2-3)o1 | 145 to 147 |
| N[C@H]1CC[C@H](CC(=O)N2CCN(c3ccccc3)CC2)CC1 | 90 to 93 |
| Cc1nc(C(N)=O)n(-c2ccc(Cl)c(Cl)c2)c1Cl | 144 to 145 |
| COC(=O)C1=NNC(C)=C(C(=O)OC)C1c1cc([N+](=O)[O-])ccc1Cl (stereo not given) | 193 to 194 |
| CC(=O)SCC(=O)NCCSC=CSCCNC(=O)CSC(C)=O | 129 |
| CCCCCCN1N=C(c2ccc(OC)c(OC)c2)C2CC=CCC2C1=O (stereo not given) | 74 to 75 |
| COc1ccc(C2CCC(c3ccc4ccccc4c3)O2)cc1OC (stereo not given) | 74 to 77 |
| Nc1nccc(Oc2ccc3c(C(=O)Nc4cccc(C(F)(F)F)c4)cccc3c2)n1 | 218 |
| CC(=O)SCCC(=O)N1CCC=C1C(=O)O | 89 to 91 |
| Cc1cc2nc(C3(c4ccc(S(N)(=O)=O)cc4)C=C(C(F)(F)F)NN3)sc2cc1F (stereo not given) | 224 to 225 |
| Cc1cc(-c2sc(N3CCN(Cc4cccc(C(F)(F)F)c4)C3=O)nc2C)n[nH]1 | 163 to 164 |
| Cc1nc(C)nc(NC(=O)NS(=O)(=O)c2ccccc2C)n1 | 141 to 145 |
